IC50 data for 9 compounds are collected here from patent publication US20260078121A1, “INHIBITORS OF ENL/AF9 YEATS AND FLT3” (Bridge Medicines, priority 2022, published 2026).

In general, IC50 refers to the concentration at which inhibition is half-maximal.

The subject of assay [1] is MV4:11 (MLL-AF4 MLL) cells. The experiment in a line: Cell viability assay (CellTiter-Glo), 12 days. As to conditions: Homo sapiens, 288 h, MV4:11 cells, cells split on days 4 and 8, CellTiter-Glo readout, read-out: MV4:11, 12 Day IC50. It is filed as cell-based. As for the experimental part:
Cell-based assays were used to assess the ability of test compounds to reduce cell viability in both MV4:11 (MLL-AF4 MLL) and K562 cells, which were cultured in Iscove's Modified Dulbecco's medium (Gibco, 12440061) containing 10% FBS. The assays were conducted over 12 days and the cells being split on days 4 and 8. Compound concentration response curves were performed in duplicate over the concentration range of 0.15 nM-30 μM. On day 0, the compounds or vehicle were plated in a 300 nL directly into 96 well cell culture plates (Corning, 3599) with 5000 cells/well in a volume of 100 μL. Blank wells received cell culture medium. Plates were incubated for 4 days at 37° C. with 5% CO2. On days 4 and day 8 the cells were split and incubated for a further 4 days whilst an aliquot of cells were taken for the CTG readout. For the cell splitting, 270 nL of compounds or DMSO was added to a new 96 well cell culture plate to which 90 μL of medium plus 10 μL of cells from the original assay plate (after mixing) or 100 μL of medium (Blank wells) was added. This was repeated on day 8.
Cell viability was assessed using the CellTiter-Glo® homogeneous luminescent assay kit (Promega, G9243), according to the manufacturer's instructions. This quantifies ATP, which indicates the presence of metabolically active cells. On days 4, 8 and 12, 20 μl of the remaining cell suspension was aspirated into 384-well plate (Corning 3570) to which an equal volume CellTiter-Glo reagent was. Plates were incubated for 10 minute incubation at RT prior to recording the luminescence signal using EnVision plate reader (PE, 2104). The resulting data were analyzed as follows:
where vehicle are cells treated with 0.3% DMSO, Blank is culture medium. IC50 determinations were calculated by fitting the curve using XLfit (v5.3.1.3): Y=Bottom+(Top−Bottom)/(1+10^((Log IC50−X)*HillSlope)).

The next assay addresses T1, FLT3 (Homo sapiens, UniProt P36888).
T1 construct: purchased Carna 08-154
T1 sequence (P36888 27-993): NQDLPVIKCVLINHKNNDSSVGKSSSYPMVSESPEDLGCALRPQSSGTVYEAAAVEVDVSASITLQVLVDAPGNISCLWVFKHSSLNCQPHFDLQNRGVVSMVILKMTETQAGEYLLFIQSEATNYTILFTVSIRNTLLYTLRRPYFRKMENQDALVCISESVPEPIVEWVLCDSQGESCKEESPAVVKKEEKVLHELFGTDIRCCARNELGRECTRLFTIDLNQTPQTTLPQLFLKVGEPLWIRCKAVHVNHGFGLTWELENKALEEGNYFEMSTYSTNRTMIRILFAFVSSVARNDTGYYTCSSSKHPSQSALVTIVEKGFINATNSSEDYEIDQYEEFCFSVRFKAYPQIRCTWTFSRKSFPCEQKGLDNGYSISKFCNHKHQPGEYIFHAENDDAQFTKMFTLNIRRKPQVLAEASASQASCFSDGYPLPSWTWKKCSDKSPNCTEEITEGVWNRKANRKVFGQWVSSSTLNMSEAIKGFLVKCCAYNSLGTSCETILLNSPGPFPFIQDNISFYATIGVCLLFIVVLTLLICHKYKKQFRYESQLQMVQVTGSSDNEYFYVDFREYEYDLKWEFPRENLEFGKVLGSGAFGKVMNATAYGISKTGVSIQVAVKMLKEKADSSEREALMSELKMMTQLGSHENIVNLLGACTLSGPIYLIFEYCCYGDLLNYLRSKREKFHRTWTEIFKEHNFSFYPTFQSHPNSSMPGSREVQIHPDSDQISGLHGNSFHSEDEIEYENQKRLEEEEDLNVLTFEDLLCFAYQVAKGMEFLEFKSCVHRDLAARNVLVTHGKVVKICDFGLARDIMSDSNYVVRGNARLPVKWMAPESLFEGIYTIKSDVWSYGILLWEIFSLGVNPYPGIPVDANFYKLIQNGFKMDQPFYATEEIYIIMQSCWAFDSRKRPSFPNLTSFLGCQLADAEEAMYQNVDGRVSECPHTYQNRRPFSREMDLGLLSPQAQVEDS
The experiment in a line: FLT3 Inhibition Assay. As to conditions: FL Peptide 2 substrate, 30 min preincubation, 90 min at room temperature, Caliper EZ reader. It is filed as biochemical. How it is done: Starting with a 10 mM stock solution, each test compound was serially diluted into 10 concentrations by 3-fold dilution using TECAN EVO200. 60 nL of each stock was transferred to a 384 plate using Echo550.
Solution 1 was prepared as the table above and used to dilute the FLT3, ATP and FL2 stock to 0.9379 nM (1.33×), 400 μM (4×) and 6 μM (4×) respectively. The FLT3 solution (15 μL) at 25° C. was added to each well, shaken for 1 min and preincubated with test compound and controls for 30 min. To each well, 5 μL of ATP and FL-Peptide2 solutions, as prepared above, were added and the plate was shaken for 10 seconds, then spun briefly at 1000 rpm, then incubated for 90 minutes at room temperature. The plate was read on Caliper EZ reader, and the IC50 values were calculated using XLfit (equation below).
[formula] • LumSample: Test compound signal • LumLC: Low control signal • LumHC: High control signal

The next assay deals with T2, ENL YEATS domain (Homo sapiens, UniProt Q03111).
T2 construct: ENL Protein (6×HIS ENL YEATS Domain, EpiCypher, 15-0069); purchased EpiCypher 15-0069
T2 sequence (Q03111 1-138 limits assumed): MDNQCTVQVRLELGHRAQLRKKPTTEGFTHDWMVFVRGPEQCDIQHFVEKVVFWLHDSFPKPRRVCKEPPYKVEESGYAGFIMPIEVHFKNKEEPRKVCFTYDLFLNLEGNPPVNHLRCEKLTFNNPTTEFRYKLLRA
The experiment in a line: TR-FRET ENL Screening Assay. As to conditions: 6×HIS ENL YEATS domain binding to biotinylated H3K9cr peptide (aa1-20). As for the experimental part:
Compounds of the invention were tested in a TR-FRET ENL Screening Assay. TR-FRET (time-resolved fluorescence energy transfer) can be used to quantify ENL YEATS domain binding to a crotonylated histone peptide (H3K9cr, aa1-20). Streptavidin-Europium (Eu) chelate binds the biotinylated peptide, while Anti-6×HIS ULight™ binds 6×HIS-ENL. When Eu chelate is excited at 320 nm, fluorescence resonance energy transfer (FRET) occurs if Eu and ULight are made proximal by ENL binding to the acyl-peptide. ULight emission (FRET) is measured at 665 nm and normalized to the Eu emission at 615 nm to reduce variability between wells.
Compounds of the invention were dissolved in DMSO at a concentration of 3 mM with subsequent dilutions in assay buffer (50 mM HEPES PH 7.0, 150 mM NaCl, 0.05% BSA, 0.2% Pluronic F-127) such that the assay contained 1% DMSO. In a white 384 shallow well Microplate (Proxiplate-384 Plus, PerkinElmer, 6008280), 150 nL of compound or vehicle (1% DMSO in assay buffer) for the high control (HC) wells and 5 μL of 30 nM ENL Protein (6×HIS ENL YEATS Domain, EpiCypher, 15-0069) were combined and incubated 15 minutes at RT. Low control (LC) wells received 5 μL of assay buffer instead of ENL protein. Then 5 μL of 15 nM H3K9cr peptide (H3 aa1-20, biotinylated; EpiCypher, 12-0099) in assay buffer was added and incubated 30 minutes at RT. Finally, a 5 L mix of 45 nM Anti-6HIS ULight (PerkinElmer, TRF0105) and 1.5 nM Streptavidin-Europium Chelate (PerkinElmer, AD0060) were added and incubated for a further 30 minutes at RT. The TR-FRET signal (665 nm signal/615 nm signal×10,000) was measured using a PerkinElmer 2104 EnVision (Xenon Flash Lamp excitation, 320 nm±37.5 nm excitation filter, 407 nm cut off dichroic mirror, 615 nm±4.25 (Europium) nm and 665 nm+3.75 nM (ULight) emission filters). Compound concentration response curves were performed in duplicate over the concentration range of 0.15 nM-30 μM. The response at each compound concentration minus the LC value was converted to percent inhibition of the vehicle control group response (HC-LC).
Background: In TR-FRET formats the signal depends on donor and acceptor labels being close together.

`Cc1cc2cnc(NC(=O)c3ccc(-c4cn[nH]c4)cn3)cc2[nH]1` [Example 1, N-(2-methyl-1H-pyrrolo[3,2-c]pyridin-6-yl)-5-(1H-pyrazol-4-yl)picolinamide]: the results for the IC50 (in assay [1]; against FLT3) were 40 nM and 7 nM, respectively.
The matching figures for `CN1CCC[C@@H]1c1cc2cnc(NC(=O)c3ccc(-c4cn[nH]c4)cn3)cc2[nH]1` [Example 2, (R)-N-(2-(1-methylpyrrolidin-2-yl)-1H-pyrrolo[3,2-c]pyridin-6-yl)-5-(1H-pyrazol-4-yl)picolinamide]: 19 nM and 7 nM.
The matching figures for `CN1CCC[C@H]1c1cc2cnc(NC(=O)c3ccc(-c4cn[nH]c4)cn3)cc2[nH]1` [Example 3, (S)-N-(2-(1-methylpyrrolidin-2-yl)-1H-pyrrolo[3,2-c]pyridin-6-yl)-5-(1H-pyrazol-4-yl)picolinamide]: 83 nM and 13 nM.
On to `CN1CCC[C@@H]1c1cc2cnc(NC(=O)c3ccc(-c4cn[nH]c4)cc3F)cc2[nH]1` [Example 4, (R)-2-fluoro-N-(2-(1-methylpyrrolidin-2-yl)-1H-pyrrolo[3,2-c]pyridin-6-yl)-4-(1H-pyrazol-4-yl)benzamide], for which the values for the IC50 (on ENL YEATS domain; in assay [1]) were 67 nM and 119 nM, respectively.
Consider `CN1CCC[C@@H]1c1cc2cnc(NC(=O)c3ccc(-c4cn[nH]c4)cc3)cc2[nH]1` [Example 5, (R)-N-(2-(1-methylpyrrolidin-2-yl)-1H-pyrrolo[3,2-c]pyridin-6-yl)-4-(1H-pyrazol-4-yl)benzamide], for which the IC50 on ENL YEATS domain is 46 nM; in assay [1], 79 nM; on FLT3, 274 nM.
Consider `CN1CCCC[C@@H]1c1cc2cnc(NC(=O)c3ccc(-c4cn[nH]c4)cc3)cc2[nH]1` [Example 6, (R)-N-(2-(1-methylpiperidin-2-yl)-1H-pyrrolo[3,2-c]pyridin-6-yl)-4-(1H-pyrazol-4-yl)benzamide], for which the IC50 stood at 64 nM at ENL YEATS domain and 138 nM in assay [1].
Consider `CN1CCCC[C@@H]1c1cc2cnc(NC(=O)c3ccc(-c4cn[nH]c4)cn3)cc2[nH]1` [Example 7, (R)-N-(2-(1-methylpiperidin-2-yl)-1H-pyrrolo[3,2-c]pyridin-6-yl)-5-(1H-pyrazol-4-yl)picolinamide], for which, in assay [1], the IC50 was 36 nM.
For the compound `COCc1n[nH]cc1-c1ccc(C(=O)Nc2cc3[nH]c([C@H]4CCCN4C)cc3cn2)cc1` [Example 8, (R)-4-(5-(methoxymethyl)-1H-pyrazol-4-yl)-N-(2-(1-methylpyrrolidin-2-yl)-1H-pyrrolo[3,2-c]pyridin-6-yl)benzamide], the figures for the half-inhibitory concentration (IC50) (on ENL YEATS domain; in assay [1]) were 179 nM and 357 nM, respectively.
`CN1CCC[C@@H]1c1cc2cnc(NC(=O)c3ccc(-c4c[nH]nc4F)cc3)cc2[nH]1` [Example 9, (R)-4-(5-fluoro-1H-pyrazol-4-yl)-N-(2-(1-methylpyrrolidin-2-yl)-1H-pyrrolo[3,2-c]pyridin-6-yl)benzamide]: the IC50 on ENL YEATS domain was determined as 73 nM; in assay [1] it was 176 nM.
